Laboratory results published in article PMC8429728, “TNK1 is a ubiquitin-binding and 14-3-3-regulated kinase that can be targeted to block tumor growth” (Nature Communications, 2021).
Read-outs that look alike come from different tables or passages of the source.

Assays:
Assay in all cases: biochemical
Design in all cases: Reaction Biology 371-kinase panel at Km ATP, per cent enzyme activity relative to DMSO, single dose in duplicate
Conditions in all cases: duplicate measurements, Km ATP
MSK1/RPS6KA5 = MSK1/RPS6KA5 (Homo sapiens, UniProt O75582)
Sequence of MSK1/RPS6KA5 (O75582 whole entry): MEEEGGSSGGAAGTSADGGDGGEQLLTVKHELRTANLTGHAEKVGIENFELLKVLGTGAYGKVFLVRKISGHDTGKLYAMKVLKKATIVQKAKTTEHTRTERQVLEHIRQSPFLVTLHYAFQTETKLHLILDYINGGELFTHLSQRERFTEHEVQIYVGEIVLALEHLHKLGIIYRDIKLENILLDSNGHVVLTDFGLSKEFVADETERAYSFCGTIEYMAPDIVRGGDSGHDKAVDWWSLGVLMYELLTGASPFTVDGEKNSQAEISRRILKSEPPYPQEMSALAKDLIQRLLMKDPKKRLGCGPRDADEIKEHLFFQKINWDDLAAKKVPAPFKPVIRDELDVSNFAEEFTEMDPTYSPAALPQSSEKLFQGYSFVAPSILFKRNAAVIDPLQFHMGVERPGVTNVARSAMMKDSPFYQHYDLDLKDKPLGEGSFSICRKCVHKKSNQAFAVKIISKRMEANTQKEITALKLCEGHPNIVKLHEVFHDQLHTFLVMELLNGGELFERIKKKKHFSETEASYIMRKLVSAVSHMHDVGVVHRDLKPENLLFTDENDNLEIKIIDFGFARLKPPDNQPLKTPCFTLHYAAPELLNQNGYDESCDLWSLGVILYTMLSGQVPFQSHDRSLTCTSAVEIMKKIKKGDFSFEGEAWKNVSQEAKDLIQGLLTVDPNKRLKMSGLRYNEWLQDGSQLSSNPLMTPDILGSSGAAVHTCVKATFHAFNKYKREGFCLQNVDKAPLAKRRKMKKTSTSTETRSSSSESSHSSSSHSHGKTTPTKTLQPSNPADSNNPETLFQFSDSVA
Summary of the method: (§1)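 First, kinases from a 371-member panel were exposed in vitro to 300 nM inhibitor. Next, % enzyme activity versus DMSO was computed. Finally, IC50s were derived by sigmoidal dose-response fitting with variable slope and a zero bottom constraint.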

TNK1 = target: T1, TNK1 (Homo sapiens, UniProt Q13470)
T1 sequence (Q13470 1-666): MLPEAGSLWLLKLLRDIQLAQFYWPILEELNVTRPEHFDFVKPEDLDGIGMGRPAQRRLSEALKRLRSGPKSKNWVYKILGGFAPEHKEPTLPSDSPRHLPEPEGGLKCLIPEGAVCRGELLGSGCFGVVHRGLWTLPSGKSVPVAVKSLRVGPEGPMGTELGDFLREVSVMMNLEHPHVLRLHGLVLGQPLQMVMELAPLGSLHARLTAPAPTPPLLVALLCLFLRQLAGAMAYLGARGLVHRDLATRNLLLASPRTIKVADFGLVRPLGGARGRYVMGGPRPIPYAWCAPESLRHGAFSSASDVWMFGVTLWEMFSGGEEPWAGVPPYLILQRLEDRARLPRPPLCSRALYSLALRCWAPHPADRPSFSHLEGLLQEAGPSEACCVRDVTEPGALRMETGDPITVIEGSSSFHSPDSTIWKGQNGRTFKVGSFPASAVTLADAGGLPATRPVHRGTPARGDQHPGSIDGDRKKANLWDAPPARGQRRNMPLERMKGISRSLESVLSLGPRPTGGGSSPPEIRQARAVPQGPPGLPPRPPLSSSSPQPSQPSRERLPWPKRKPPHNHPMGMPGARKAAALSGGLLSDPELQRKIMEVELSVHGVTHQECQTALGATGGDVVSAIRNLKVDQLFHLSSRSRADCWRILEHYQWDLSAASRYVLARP
Summary of the method: as §1

CDK5/p35 = target: T2, CDK5/p35 (Homo sapiens, UniProt Q00535)
T2 construct: p35
Summary of the method: as §1

MARK1 = MARK1 (Homo sapiens, UniProt Q9P0L2)
Sequence of MARK1 (Q9P0L2 whole entry): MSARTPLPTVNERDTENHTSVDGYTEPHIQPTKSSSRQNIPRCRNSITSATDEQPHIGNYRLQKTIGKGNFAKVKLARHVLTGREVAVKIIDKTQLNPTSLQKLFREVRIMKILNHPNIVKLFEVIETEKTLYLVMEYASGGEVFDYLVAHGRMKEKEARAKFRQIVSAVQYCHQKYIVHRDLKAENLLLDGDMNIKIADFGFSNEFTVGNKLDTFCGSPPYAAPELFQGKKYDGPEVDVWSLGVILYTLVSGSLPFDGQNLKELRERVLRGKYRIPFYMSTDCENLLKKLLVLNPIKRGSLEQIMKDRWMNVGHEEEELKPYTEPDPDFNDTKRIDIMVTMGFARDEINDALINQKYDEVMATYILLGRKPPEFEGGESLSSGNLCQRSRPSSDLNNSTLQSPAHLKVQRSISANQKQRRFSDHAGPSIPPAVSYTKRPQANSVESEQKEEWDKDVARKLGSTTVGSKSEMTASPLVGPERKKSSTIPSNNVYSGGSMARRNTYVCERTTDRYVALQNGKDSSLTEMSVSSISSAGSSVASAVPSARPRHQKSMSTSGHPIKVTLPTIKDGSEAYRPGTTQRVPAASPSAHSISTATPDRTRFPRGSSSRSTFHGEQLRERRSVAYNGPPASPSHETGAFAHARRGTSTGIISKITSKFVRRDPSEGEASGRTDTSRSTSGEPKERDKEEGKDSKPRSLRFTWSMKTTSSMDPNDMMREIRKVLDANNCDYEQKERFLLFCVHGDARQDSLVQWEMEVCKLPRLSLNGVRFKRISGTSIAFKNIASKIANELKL
Summary of the method: as §1

RSK2 = target: T3, RSK2 (Homo sapiens, UniProt P51812)
T3 construct: gene RPS6KA3
T3 sequence (P51812 whole entry): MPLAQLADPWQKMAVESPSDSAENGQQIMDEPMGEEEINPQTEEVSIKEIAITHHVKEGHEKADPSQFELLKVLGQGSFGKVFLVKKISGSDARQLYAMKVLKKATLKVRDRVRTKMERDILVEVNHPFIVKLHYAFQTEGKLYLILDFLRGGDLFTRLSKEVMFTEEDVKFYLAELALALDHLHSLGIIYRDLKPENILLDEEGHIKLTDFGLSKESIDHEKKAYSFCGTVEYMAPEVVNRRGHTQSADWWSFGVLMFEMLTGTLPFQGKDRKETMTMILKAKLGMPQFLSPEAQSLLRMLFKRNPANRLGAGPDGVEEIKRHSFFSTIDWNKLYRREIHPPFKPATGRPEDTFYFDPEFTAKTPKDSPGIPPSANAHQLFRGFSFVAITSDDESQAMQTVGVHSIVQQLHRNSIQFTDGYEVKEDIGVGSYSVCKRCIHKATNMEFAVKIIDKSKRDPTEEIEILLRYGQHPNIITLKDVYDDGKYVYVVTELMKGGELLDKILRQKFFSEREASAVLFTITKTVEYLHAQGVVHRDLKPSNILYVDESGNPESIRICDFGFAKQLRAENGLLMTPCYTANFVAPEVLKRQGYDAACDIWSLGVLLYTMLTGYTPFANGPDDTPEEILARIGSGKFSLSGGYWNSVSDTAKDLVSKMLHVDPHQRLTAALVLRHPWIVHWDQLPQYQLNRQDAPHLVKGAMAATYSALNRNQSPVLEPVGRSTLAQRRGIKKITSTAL
Summary of the method: as §1

KSR1 = KSR1 (Homo sapiens, UniProt Q8IVT5)
Summary of the method: as §1

p70S6K/RPS6KB1 = p70S6K/RPS6KB1 (Homo sapiens, UniProt P23443)
Sequence of p70S6K/RPS6KB1 (P23443 whole entry): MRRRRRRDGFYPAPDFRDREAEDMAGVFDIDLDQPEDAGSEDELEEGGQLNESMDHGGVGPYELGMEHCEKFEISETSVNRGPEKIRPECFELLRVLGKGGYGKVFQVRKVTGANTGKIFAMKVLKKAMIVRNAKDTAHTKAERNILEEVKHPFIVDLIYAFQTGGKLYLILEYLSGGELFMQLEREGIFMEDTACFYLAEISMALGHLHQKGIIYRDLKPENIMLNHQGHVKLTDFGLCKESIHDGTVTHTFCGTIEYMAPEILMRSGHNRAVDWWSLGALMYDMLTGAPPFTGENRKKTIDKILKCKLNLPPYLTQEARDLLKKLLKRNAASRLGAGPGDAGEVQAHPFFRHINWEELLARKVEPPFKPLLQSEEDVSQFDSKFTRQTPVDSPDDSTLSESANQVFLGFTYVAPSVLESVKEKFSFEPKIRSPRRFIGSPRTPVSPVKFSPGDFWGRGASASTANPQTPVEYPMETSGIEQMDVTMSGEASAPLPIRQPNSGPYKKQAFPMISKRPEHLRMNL
Summary of the method: as §1

CDK2/cyclin A1 = CDK2/cyclin A1 (Homo sapiens, UniProt P24941)
Summary of the method: as §1

CLK2 = CLK2 (Homo sapiens, UniProt P49760)
Sequence of CLK2 (P49760 whole entry): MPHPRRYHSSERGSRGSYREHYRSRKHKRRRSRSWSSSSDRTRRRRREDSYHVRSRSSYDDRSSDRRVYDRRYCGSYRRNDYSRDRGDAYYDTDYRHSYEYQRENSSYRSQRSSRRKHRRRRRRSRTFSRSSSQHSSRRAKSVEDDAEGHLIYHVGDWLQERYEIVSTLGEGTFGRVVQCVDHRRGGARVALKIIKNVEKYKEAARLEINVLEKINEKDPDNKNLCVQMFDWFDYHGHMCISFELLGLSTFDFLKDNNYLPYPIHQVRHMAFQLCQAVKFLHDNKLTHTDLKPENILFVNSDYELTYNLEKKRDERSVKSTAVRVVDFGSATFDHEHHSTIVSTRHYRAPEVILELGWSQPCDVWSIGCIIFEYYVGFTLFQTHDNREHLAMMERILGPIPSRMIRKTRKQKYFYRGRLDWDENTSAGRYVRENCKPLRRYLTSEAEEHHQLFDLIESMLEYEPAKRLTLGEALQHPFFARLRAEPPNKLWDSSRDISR
Summary of the method: as §1

FMS = target: T4, FMS (Homo sapiens, UniProt P07333)
T4 construct: gene CSF1R
T4 sequence (P07333 whole entry): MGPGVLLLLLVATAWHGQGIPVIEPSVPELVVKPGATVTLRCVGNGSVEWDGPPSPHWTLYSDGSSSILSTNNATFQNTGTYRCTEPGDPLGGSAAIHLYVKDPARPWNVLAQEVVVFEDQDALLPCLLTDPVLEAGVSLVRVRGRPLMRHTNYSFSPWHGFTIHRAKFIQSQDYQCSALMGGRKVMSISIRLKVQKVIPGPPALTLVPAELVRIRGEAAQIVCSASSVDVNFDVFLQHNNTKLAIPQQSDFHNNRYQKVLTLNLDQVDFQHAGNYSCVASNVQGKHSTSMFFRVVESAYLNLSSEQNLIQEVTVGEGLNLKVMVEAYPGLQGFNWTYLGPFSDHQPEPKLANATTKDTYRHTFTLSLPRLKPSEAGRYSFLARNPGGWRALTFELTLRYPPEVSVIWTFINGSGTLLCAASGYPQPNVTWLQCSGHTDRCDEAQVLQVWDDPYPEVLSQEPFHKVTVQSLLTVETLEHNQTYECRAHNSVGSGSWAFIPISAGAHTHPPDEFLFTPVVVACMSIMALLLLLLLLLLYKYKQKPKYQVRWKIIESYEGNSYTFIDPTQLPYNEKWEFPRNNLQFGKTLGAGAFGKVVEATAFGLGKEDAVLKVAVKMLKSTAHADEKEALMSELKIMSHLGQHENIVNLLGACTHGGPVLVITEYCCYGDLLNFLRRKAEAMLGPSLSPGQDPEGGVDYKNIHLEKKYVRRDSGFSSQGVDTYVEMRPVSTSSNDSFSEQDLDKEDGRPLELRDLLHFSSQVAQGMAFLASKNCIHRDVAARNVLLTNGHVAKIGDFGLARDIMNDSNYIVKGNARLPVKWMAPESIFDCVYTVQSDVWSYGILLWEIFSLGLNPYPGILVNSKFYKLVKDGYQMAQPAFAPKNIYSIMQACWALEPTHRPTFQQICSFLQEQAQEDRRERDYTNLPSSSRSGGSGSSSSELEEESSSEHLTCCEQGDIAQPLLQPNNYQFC
Summary of the method: as §1

DDR2 = DDR2 (Homo sapiens, UniProt Q16832)
Summary of the method: as §1

WNK3 = WNK3 (Homo sapiens, UniProt Q9BYP7)
Summary of the method: as §1

NIM1 = target: T5, NIM1 (Homo sapiens, UniProt Q8IY84)
T5 construct: gene NIM1K
Summary of the method: as §1

MSK2/RPS6KA4 = MSK2/RPS6KA4 (Homo sapiens, UniProt O75676)
Summary of the method: as §1

PKCepsilon = target: T6, PKCepsilon (Homo sapiens, UniProt Q02156)
T6 construct: gene PRKCE
T6 sequence (Q02156 whole entry): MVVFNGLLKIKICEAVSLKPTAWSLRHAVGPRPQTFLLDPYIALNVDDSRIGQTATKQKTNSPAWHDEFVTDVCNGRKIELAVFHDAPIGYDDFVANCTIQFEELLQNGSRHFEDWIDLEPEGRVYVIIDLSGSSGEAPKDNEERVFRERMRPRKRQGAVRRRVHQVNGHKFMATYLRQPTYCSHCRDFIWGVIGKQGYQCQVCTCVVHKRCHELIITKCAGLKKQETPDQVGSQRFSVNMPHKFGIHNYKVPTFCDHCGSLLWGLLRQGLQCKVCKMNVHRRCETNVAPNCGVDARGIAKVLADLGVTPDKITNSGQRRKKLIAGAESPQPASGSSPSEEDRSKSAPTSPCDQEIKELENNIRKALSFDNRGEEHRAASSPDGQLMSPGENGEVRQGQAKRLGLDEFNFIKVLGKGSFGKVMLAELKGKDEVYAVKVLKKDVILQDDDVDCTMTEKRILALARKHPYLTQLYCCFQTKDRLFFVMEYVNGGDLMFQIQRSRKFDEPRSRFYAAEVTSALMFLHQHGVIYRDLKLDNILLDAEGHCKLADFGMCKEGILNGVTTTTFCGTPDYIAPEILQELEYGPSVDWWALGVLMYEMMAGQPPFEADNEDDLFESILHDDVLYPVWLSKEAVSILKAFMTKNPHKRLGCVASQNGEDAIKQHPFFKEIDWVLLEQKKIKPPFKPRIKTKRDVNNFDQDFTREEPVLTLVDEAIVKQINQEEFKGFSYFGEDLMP
Summary of the method: as §1

[1] = read-out: % Enzyme Activity (relative to DMSO controls) / TP-0005801 (0.3µM) / Data 1
[2] = read-out: % Enzyme Activity (relative to DMSO controls) / TP-0005801 (0.3µM) / Data 2

Work on `COc1cc(N2CCN(C)CC2)c(C)cc1Nc1ncc(Br)c(Nc2cccnc2N(C)C)n1` [TP-5801] yielded a remaining activity at 0.3 µM (MSK1/RPS6KA5; [1]) of 127%, a remaining activity at 0.3 µM (MSK1/RPS6KA5; [2]) of 123% and a remaining activity at 0.3 µM (TNK1; [1]) of 0.98%. It also gave a remaining activity at 0.3 µM (TNK1; [2]) of 0.83%, a remaining activity at 0.3 µM (CDK5/p35; [1]) of 99.5% and a remaining activity at 0.3 µM (CDK5/p35; [2]) of 99.1%. For the same compound, the remaining activity at 0.3 µM (MARK1; [1]) was 101%, the remaining activity at 0.3 µM (MARK1; [2]) was 99.2% and the remaining activity at 0.3 µM (RSK2; [1]) was 90.5%. For the same compound, the remaining activity at 0.3 µM (RSK2; [2]) was 84.9%, the remaining activity at 0.3 µM (KSR1; [1]) was 99.2% and the remaining activity at 0.3 µM (KSR1; [2]) was 97.6%. For the same compound, the remaining activity at 0.3 µM (p70S6K/RPS6KB1; [1]) was 105%, the remaining activity at 0.3 µM (p70S6K/RPS6KB1; [2]) was 102% and the remaining activity at 0.3 µM (CDK2/cyclin A1; [1]) was 67.5%. The remaining activity at 0.3 µM (CDK2/cyclin A1; [2]) was 63.7%, the remaining activity at 0.3 µM (CLK2; [1]) was 69.8% and the remaining activity at 0.3 µM (CLK2; [2]) was 68.6%. For the same compound, the remaining activity at 0.3 µM (FMS; [1]) was 56.3%, the remaining activity at 0.3 µM (FMS; [2]) was 55.6% and the remaining activity at 0.3 µM (DDR2; [1]) was 77.1%. For the same compound, the remaining activity at 0.3 µM (DDR2; [2]) was 75.8%, the remaining activity at 0.3 µM (WNK3; [1]) was 87.5% and the remaining activity at 0.3 µM (WNK3; [2]) was 86.5%. For the same compound, the remaining activity at 0.3 µM (NIM1; [1]) was 102%, the remaining activity at 0.3 µM (NIM1; [2]) was 95.6% and the remaining activity at 0.3 µM (MSK2/RPS6KA4; [1]) was 99%. It also gave a remaining activity at 0.3 µM (MSK2/RPS6KA4; [2]) of 95%, a remaining activity at 0.3 µM (PKCepsilon; [1]) of 93.6% and a remaining activity at 0.3 µM (PKCepsilon; [2]) of 93.3%.
